Assay results: patent US20120301895A1, “METHODS OF MODULATING BINDING OF SON OF SEVENLESS TO PHOSPHATIDIC ACID AND IDENTIFYING COMPOUNDS THAT MODULATE SUCH BINDING” (THE RESEARCH FOUNDATION OF STATE UNIVERSITY OF NEW YORK, priority 2007, published 2012)

System: Calu-1 cells
Test: Cell viability and PARP cleavage in Calu-1 cells
Assay type: cell-based, human
Conditions: honokiol 20 μM, 0.5% serum
Experimental: In FIG. 17A, T24 and Calu1 cells (obtained from the American Type Culture Collection) were plated in DMEM containing 10% serum for 48 hr and then shifted to either 10% serum or 0.5% serum overnight as indicated. Honokiol (20 μM) or control ethanol was then added for 4 hr as indicated. [^3H]-Myristate was added with the honokiol. After 4 hr, BtOH (0.7%) was added for 20 min, at which time the cells were harvested and the level of phosphatidyl-BtOH (P-Bt) was determined as in FIGS. 12A-C. The experiments shown are representative of at least two independent experiments. In FIG. 17B, T24 and Calu-1 cells were plated in DMEM with 10% serum for 48 hr then changed to DMEM containing either 10% or 0.5% serum overnight as indicated. Honokiol (20 μM) or control ethanol was then added either at the time of changing media (24 hr), or 4 hr before harvesting as in FIGS. 14A-E, at which time the cells were examined for cell viability or PARD cleavage. […]
Cell viability was determined by trypan blue exclusion. […] After 10 min, trypan blue uptake (dead cells) was determined by counting on a hemocytometer. Apoptosis was evaluated by examination of cleavage of the caspase 3 substrate PARP as described previously (Chen et al., “Alternative Phospholipase D/mTOR Survival Signal in Human Breast Cancer Cells,” Oncogene 24:672-9 (2005), which is hereby incorporated by reference in its entirety). […]

## C=CCc1ccc(O)c(-c2ccc(O)c(CC=C)c2)c1 [honokiol, Honokiol]
  PARP cleavage: induced
  cell death: induced
